Assay results taken from ChEMBL document CHEMBL6127100, “Plant based steroidal and triterpenoid sapogenins: Chemistry on diosgenin and biological aspects” (Eur J Med Chem, 2024).

Experiments:
Ca-Ski [1] = test: Antiproliferative activity against human Ca-Ski cells assessed as reduction in cell growth after 48 hrs by MTT assay; format: functional, cell-based
HeLa [2] = test: Antiproliferative activity against human HeLa cells assessed as reduction in cell growth after 48 hrs by MTT assay; format: functional, cell-based
HepG2 [3] = test: Antiproliferative activity against human HepG2 cells assessed as reduction in cell viability incubated for 24 hrs ny MTT assay; format: functional, cell-based; details: HepG2, 24 h
HeLa [4] = test: Antiproliferative activity against human HeLa cells assessed as reduction in cell viability incubated for 24 hrs by MTT assay; format: functional, cell-based
U-937 [5] = test: Cytotoxicity against human U-937 cells; format: functional, cell-based
MDA-MB-231 [6] = test: Cytotoxicity against human MDA-MB-231 cells; format: functional, cell-based
T98G = test: Antiproliferative activity against human T98G cells assessed as inhibition of cell growth incubated for 72 hrs by celltiter-glo assay; format: functional, cell-based
BT-474 = test: Cytotoxicity against human BT-474 cells; format: functional, cell-based
U-937 [7] = test: Antiproliferative activity against human U-937 cells assessed as inhibition of cell growth incubated for 72 hrs by cell-titer glo assay; format: functional, cell-based; details: U-937, 72 h
DU-145 = test: Cytotoxicity against human DU-145 cells; format: functional, cell-based
HeLa [8] = test: Growth inhibition of human HeLa cells; format: functional
RAW264.7 [9] = test: Antiinflammatory activity in LPS-induced mouse RAW264.7 cells assessed as inhibition of IL-6 production pretreated for 1 hr followed by LPS stimulation and measured after 3 hrs by ELISA; format: functional; set-up: scale not given: the % may be the effect or the level left; details: time 4 hrs
RAW264.7 [10] = test: Anti-inflammatory activity in mouse RAW264.7 cells assessed as inhibition of LPS-induced TNFalpha production preincubated for 1 hr followed by LPS addition and measured after 24 hrs by ELISA; format: functional; set-up: scale not given: the % may be the effect or the level left; details: time 25 hrs
HeLa [11] = test: Cytotoxicity against human HeLa cells; format: functional, cell-based
Ca-Ski [12] = test: Cytotoxicity against human Ca-Ski cells; format: functional, cell-based
CCRF-CEM = test: Cytotoxicity against human CCRF-CEM cells; format: functional, cell-based
HeLa [13] = test: Antiproliferative activity against human HeLa cells assessed as reduction in cell growth; format: functional, cell-based
PC-9 = test: Anticancer activity against human PC-9 cells assessed as inhibition of cell growth incubated for 48 hrs by MTT assay; format: functional, cell-based; details: PC-9, 48 h
A549 = test: Anticancer activity against human A549 cells assessed as inhibition of cell growth incubated for 48 hrs by MTT assay; format: functional, cell-based; details: A549, 48 h
HepG2 [14] = test: Antiproliferative activity against human HepG2 cells assessed as reduction in cell growth; format: functional, cell-based
HepG2 [15] = test: Antiproliferative activity against human HepG2 cells assessed as reduction in cell viability incubated for 48 hrs by MTT assay; format: functional, cell-based; details: HepG2, 48 h
KB = test: Cytotoxicity against human KB cells assessed as reduction in cell growth incubated for 3 days by micro-titer plate reader analysis; format: functional, cell-based; details: 72 h
HuCC-A1 = test: Cytotoxicity against human HuCC-A1 cells assessed as reduction in cell growth incubated for 3 days by micro-titer plate reader analysis; format: functional, cell-based; details: HuCC-A1, 72 h
MDA-MB-231 [16] = test: Cytotoxicity against human MDA-MB-231 cells assessed as reduction in cell growth incubated for 48 hrs by MTT assay; format: functional, cell-based; details: MDA-MB-231, 48 h
HepG2 [17] = test: Cytotoxicity against human HepG2 cells assessed as reduction in cell viability incubated for 24 hrs by MTT assay; format: functional, cell-based; details: HepG2, 24 h
HeLa [18] = test: Cytotoxicity against human HeLa cells assessed as reduction in cell growth incubated for 48 hrs by MTT assay; format: functional, cell-based

C[C@@H]1CC[C@@]2(OC1)O[C@H]1C[C@H]3[C@@H]4CC=C5C[C@@H](O[C@@H]6O[C@H](CO)[C@@H](O[C@@H]7O[C@@H](C)[C@H](O)[C@@H](O)[C@H]7O)[C@H](O)[C@H]6O)CC[C@]5(C)[C@H]4CC[C@]3(C)[C@H]1[C@@H]2C
IC50 (Ca-Ski [1]): 80 µM
IC50 (HeLa [2]): 45.1 µM

C[C@H](CC[C@H]1O[C@H]2C[C@H]3[C@@H]4CC=C5C[C@@H](O)CC[C@]5(C)[C@H]4CC[C@]3(C)[C@H]2[C@@H]1C)COC1=C(Cl)C(=O)c2ccccc2C1=O
IC50 (HepG2 [3]): 1.24 µM
IC50 (HeLa [4]): 14.1 µM

C[C@@H]1CC[C@@]2(OC1)O[C@H]1C[C@H]3[C@@H]4CC(n5cc(-c6ccccn6)nn5)C5(O)C[C@@H](O)CC[C@]5(C)[C@H]4CC[C@]3(C)[C@H]1[C@@H]2C (some centres undefined)
IC50 (U-937 [5]): 15.2 µM

COc1ccc(-c2cn(C3C[C@H]4[C@@H]5C[C@@H]6O[C@]7(CC[C@@H](C)CO7)[C@@H](C)[C@@H]6[C@@]5(C)CC[C@@H]4[C@@]4(C)CC[C@H](O)CC34O)nn2)cc1 (some centres undefined)
IC50 (MDA-MB-231 [6]): 5.78 µM
IC50 (T98G): 11.4 µM
IC50 (BT-474): 4.3 µM
IC50 (U-937 [7]): 5.41 µM
IC50 (DU-145): 19.8 µM

CC(=O)O[C@@H]1C=C2/C(=N/O)C[C@H]3[C@@H]4C[C@@H]5OC(=O)[C@@H](C)[C@@H]5[C@@]4(C)CC[C@@H]3[C@@]2(C)CC1
GI50 (HeLa [8]): 17 µM
IC50 (BT-474): 14.1 µM
IC50 (DU-145): 7.81 µM

C[C@H]1CO[C@@]2(O[C@H]3C[C@H]4[C@@H]5/C(=N/CCCCC(=O)O)C=C6C[C@@H](O)CC[C@]6(C)[C@H]5CC[C@]4(C)[C@H]3[C@@H]2C)/C(=N/O)C1
Activity (RAW264.7 [9]): 23.3%
Activity (RAW264.7 [10]): 47.7%

C[C@H](CC[C@H]1O[C@H]2C[C@H]3[C@@H]4CC=C5C[C@@H](O[Si](C)(C)C(C)(C)C)CC[C@]5(C)[C@H]4CC[C@]3(C)[C@H]2[C@@H]1C)COC1=C(Cl)C(=O)c2ncccc2C1=O
IC50 (HepG2 [3]): 19.7 µM

CC(=O)O[C@@H]1C=C2CC[C@H]3[C@@H]4C[C@@H]5O[C@@]6(OC[C@H](C)CC6/C(C)=N\O)[C@@H](C)[C@@H]5[C@@]4(C)CC[C@@H]3[C@@]2(C)CC1 (some centres undefined)
IC50 (HeLa [11]): 5.6 µM
IC50 (Ca-Ski [12]): 5.4 µM

COc1cccc(COc2ccc(-c3cn(C4C[C@H]5[C@@H]6C[C@@H]7O[C@]8(CC[C@@H](C)CO8)[C@@H](C)[C@@H]7[C@@]6(C)CC[C@@H]5[C@@]5(C)CC[C@H](O)CC45O)nn3)cc2)c1 (some centres undefined)
IC50 (T98G): 7.51 µM
IC50 (CCRF-CEM): 5.73 µM
IC50 (DU-145): 10.5 µM

COc1cc(-c2cn(C3C[C@H]4[C@@H]5C[C@@H]6O[C@]7(CC[C@@H](C)CO7)[C@@H](C)[C@@H]6[C@@]5(C)CC[C@@H]4[C@@]4(C)CC[C@H](O)CC34O)nn2)cc(OC)c1OC (some centres undefined)
IC50 (U-937 [5]): 5.45 µM
IC50 (MDA-MB-231 [6]): 16.1 µM
IC50 (CCRF-CEM): 6.26 µM

CC(=O)O[C@H]1CC[C@@]2(C)C(=CC[C@H]3[C@@H]4C[C@@H]5O[C@H](CC[C@@H](C)COC6=C(Cl)C(=O)c7ccccc7C6=O)[C@@H](C)[C@@H]5[C@@]4(C)CC[C@@H]32)C1
IC50 (HepG2 [3]): 13.5 µM

Cc1ccc2c(n1)C(=O)C(Cl)C(O[C@H]1CC[C@@]3(C)C(=CC[C@H]4[C@@H]5C[C@@H]6O[C@]7(CC[C@@H](C)CO7)[C@@H](C)[C@@H]6[C@@]5(C)CC[C@@H]43)C1)C2=O (some centres undefined)
IC50 (HeLa [13]): 16 µM

C[C@H](CC[C@H]1O[C@H]2C[C@H]3[C@@H]4CC=C5C[C@@H](O[Si](C)(C)C(C)(C)C)CC[C@]5(C)[C@H]4CC[C@]3(C)[C@H]2[C@@H]1C)COC1=C(Cl)C(=O)c2ccccc2C1=O
IC50 (HepG2 [3]): 5.81 µM
IC50 (HeLa [4]): 17.4 µM

C[C@@H]1CC[C@@]2(OC1)O[C@H]1C[C@H]3[C@@H]4CC(n5cc(-c6ccccc6)nn5)C5(O)C[C@@H](O)CC[C@]5(C)[C@H]4CC[C@]3(C)[C@H]1[C@@H]2C (some centres undefined)
IC50 (U-937 [5]): 7.9 µM
IC50 (MDA-MB-231 [6]): 3.32 µM
IC50 (CCRF-CEM): 3.9 µM
IC50 (BT-474): 13.2 µM
IC50 (U-937 [7]): 8.22 µM
IC50 (DU-145): 7.9 µM

C[C@@H]1CC[C@@]2(OC1)O[C@H]1C[C@H]3[C@@H]4CCC5(OC#N)C[C@@H](O)CC[C@]5(C)[C@H]4CC[C@]3(C)[C@H]1[C@@H]2C (some centres undefined)
IC50 (PC-9): 8.7 µM
IC50 (A549): 5.1 µM

C[C@@H]1CC[C@@]2(OC1)O[C@H]1C[C@H]3[C@@H]4CC=C5C[C@@H](OC6=C(Cl)C(=O)c7ccccc7C6=O)CC[C@]5(C)[C@H]4CC[C@]3(C)[C@H]1[C@@H]2C
IC50 (HepG2 [14]): 17.5 µM

C[C@@H]1CC[C@@]2(OC1)O[C@H]1C[C@H]3[C@@H]4CC=C5C[C@@H](OC(=O)[C@@H](N)CCCNC(=N)N)CC[C@]5(C)[C@H]4CC[C@]3(C)[C@H]1[C@@H]2C
IC50 (HepG2 [15]): 19 µM

Cc1ccc2c(c1)C(=O)C(Cl)=C(OC[C@H](C)CC[C@H]1O[C@H]3C[C@H]4[C@@H]5CC=C6C[C@@H](O[Si](C)(C)C(C)(C)C)CC[C@]6(C)[C@H]5CC[C@]4(C)[C@H]3[C@@H]1C)C2=O
IC50 (HepG2 [3]): 10.9 µM
IC50 (HeLa [4]): 17.9 µM

C[C@@H]1CC[C@@]2(OC1)O[C@H]1C[C@H]3[C@@H]4C/C(=N\O)C5=C/C(=N/O)CC[C@]5(C)[C@H]4CC[C@]3(C)[C@H]1[C@@H]2C
IC50 (HeLa [11]): 19 µM
IC50 (Ca-Ski [12]): 22 µM

C[C@@H]1CC[C@@]2(OC1)O[C@H]1C[C@H]3[C@@H]4CC(n5cc(-c6ccc(F)cc6)nn5)C5(O)C[C@@H](O)CC[C@]5(C)[C@H]4CC[C@]3(C)[C@H]1[C@@H]2C (some centres undefined)
IC50 (U-937 [5]): 7.07 µM
IC50 (MDA-MB-231 [6]): 7.08 µM
IC50 (T98G): 8.87 µM
IC50 (CCRF-CEM): 5.44 µM
IC50 (BT-474): 3.85 µM
IC50 (DU-145): 10.1 µM

C[C@@H]1CC[C@@]2(OC1)O[C@H]1C[C@H]3[C@@H]4CC=C5C[C@@H](O[C@@H]6O[C@H](CO)[C@@H](O[C@@H]7O[C@@H](C)[C@H](O)[C@@H](O)[C@H]7O)[C@H](O)[C@H]6O[C@@H]6O[C@@H](C)[C@H](O)[C@@H](O)[C@H]6O)CC[C@]5(C)[C@H]4CC[C@]3(C)[C@H]1[C@@H]2C [DIOSCIN]
IC50 (Ca-Ski [1]): 2 µM
IC50 (KB): 6.2 µM
IC50 (HeLa [2]): 2 µM
IC50 (HuCC-A1): 8.4 µM
IC50 (MDA-MB-231 [16]): 1.7 µM
IC50 (HepG2 [17]): 3.09 µM
IC50 (HeLa [18]): 3.6 µM

C[C@@H]1CC[C@@]2(OC1)O[C@H]1C[C@H]3[C@@H]4CC=C5C[C@@H](O)CC[C@]5(C)[C@H]4CC[C@]3(C)[C@H]1[C@@H]2C [DISOGENIN]
IC50 (Ca-Ski [1]): 80 µM
IC50 (HeLa [2]): 31.4 µM

C[C@@H]1CC[C@@]2(OC1)O[C@H]1C[C@H]3[C@@H]4CC=C5C[C@@H](O[C@@H]6O[C@H](CO)[C@@H](O)[C@H](O)[C@H]6O)CC[C@]5(C)[C@H]4CC[C@]3(C)[C@H]1[C@@H]2C [DISOGLUSIDE]
IC50 (Ca-Ski [1]): 41 µM
IC50 (HeLa [2]): 39.1 µM

C[C@@H]1CC[C@@]2(OC1)O[C@H]1C[C@H]3[C@@H]4CC=C5C[C@@H](O[C@@H]6O[C@H](CO)[C@@H](O[C@@H]7O[C@@H](C)[C@H](O[C@@H]8O[C@@H](C)[C@H](O)[C@@H](O)[C@H]8O)[C@@H](O)[C@H]7O)[C@H](O)[C@H]6O[C@@H]6O[C@@H](C)[C@H](O)[C@@H](O)[C@H]6O)CC[C@]5(C)[C@H]4CC[C@]3(C)[C@H]1[C@@H]2C [PENNOGENIN RAHAMNOSYL CHACOTRIOSIDE]
IC50 (KB): 6.2 µM
IC50 (HuCC-A1): 3 µM
IC50 (MDA-MB-231 [16]): 3.1 µM
IC50 (HepG2 [17]): 6.33 µM
IC50 (HeLa [18]): 3 µM
